Source: patent US12263248B2, “Compounds and compositions for intracellular delivery of therapeutic agents” (ModernaTX, Inc., priority 2018, dated 2025)
Entries after “also recorded” stand apart in the source; their conditions may differ.

Legend:
[1] = test system: IL-6, IP-10; assay: Cytokine induction in mice upon intravenous administration; type: in vivo; design: Cytokine induction IL-6 / Cytokine induction IP-10: unit not given here; settings: 0.5 mpk, 6 hours; for Cytokine induction IL-6 / Cytokine induction IP-10: intravenous
Summary of the method: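 Mice dosed intravenously with nanoparticle compositions at 0.5 mpk; serum cytokine concentrations (IL-6, IP-10) measured at 6 hours. MC3 formulation and PBS controls run alongside.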

[2] = test system: luciferase (Luc) mRNA; assay: Luc expression in liver, lung, spleen and femur 6 hours after intravenous administration; type: in vivo; settings: mice, intravenous, 0.5 mpk
Summary of the method: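 LNP-formulated mRNA given IV to mice (n=3) at 0.5 mpk; at 6 h, bioluminescence imaged ex vivo 15 min after IP D-luciferin (15 mg/mL, 200 μL), organs imaged within 25 min. Values are total flux by region of interest.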

[3] = test system: luciferase (Luc) mRNA; assay: Luc expression (total flux) after intramuscular administration; type: in vivo, mice; settings: for Total flux, 0.001 mpk Dose / Total flux, 0.01 mpk Dose: Luc mRNA and H10 mRNA
Summary of the method: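 Mice given a single intramuscular dose of lipid nanoparticle formulations carrying modified Luc mRNA, alone or with H10 mRNA, at 0.001 or 0.01 mpk total. Luciferase expression recorded as total flux.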

[4] = test system: luciferase (Luc) mRNA; assay: Luc expression, whole body bioluminescence after intravenous administration to mice; type: in vivo; settings: for Fold increase in total body Luc Flux relative to MC3 at 6 h: Table 3A; for Total Flux 3 hours / Total Flux 6 hours / Total Flux 24 hours / Average total flux (6 h, ffluc) / Fold increase in average total flux relative to MC3 / luciferase activity relative to MC3 LNP control: mice; for Total Flux 3 hours / Total Flux 6 hours / Total Flux 24 hours: i.v., Luc mRNA; for Lipid/MC3 Luc expression: 0.5 mpk dose to mouse, 6 hours after administration; for Average total flux (6 h, ffluc) / Fold increase in average total flux relative to MC3: 6 h; for luciferase activity relative to MC3 LNP control: 0.5 mg/kg (mRNA dose)
Summary of the method: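 Luc mRNA nanoparticle formulations given intravenously to mice (n=6) at 0.5 mg/kg; whole-body bioluminescence imaged at 3, 6 and 24 h. CD-1 mice received IP D-luciferin (200 μL of 15 mg/mL) 15 min before imaging; total flux quantified by region of interest.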

[5] = 6 hours after intramuscular administration, 0.001 mpk
[6] = 6 hours after intramuscular administration, 0.01 mpk

| SMILES | Cytokine induction IL-6 [1] | Cytokine induction IP-10 [1] | Total Flux Femur [2] | Total Flux Liver [2] | Total Flux Lung [2] | Total Flux Spleen [2] | Total flux, 0.001 mpk Dose [3, 5] | Total flux, 0.01 mpk Dose [3, 6] | Fold increase in total body Luc Flux relative to MC3 at 6 h ([4]; i.v. administration) | Total Flux 3 hours ([4]; 0.5 mg/kg) | Total Flux 6 hours ([4]; 0.5 mg/kg) | Total Flux 24 hours ([4]; 0.5 mg/kg) | Lipid/MC3 Luc expression [4] | Average total flux (6 h, ffluc) ([4]; intravenous) | Fold increase in average total flux relative to MC3 ([4]; intravenous) | other results |
| --- | --- | --- | --- | --- | --- | --- | --- | --- | --- | --- | --- | --- | --- | --- | --- | --- |
| CCCCCC/C=C\COC(=O)CCCCCCCN(CCO)CCCCCCCC(=O)OC(CCCCCCCC)CCCCCCCC [Compound 24, Heptadecan-9-yl (Z)-8_((2-hydroxyethyl) (8-(non-2-en-1-yloxy)-8-oxooctyl)amino)octanoate] | 163.53 | 1172.93 | 4.54E+06 | 4.19E+09 | 1.71E+07 | 8.78E+07 | 3.78E+06 p/s | 3.97E+07 p/s | 2.67 | 1.72E+10 | 2.25E+10 | 1.83E+09 | – | – | – | Novel lipid/MC3 ratio, 6 hr. timepoint, i.v. ([4]; luciferase, intravenous, relative to MC3, Table 3G): 2.67; Novel lipid/MC3 expression ratio, 6 hr. time point, i.v. ([4]; luciferase, intravenous, relative to MC3 formulation): 2.67 |
| CCCCC/C=C\C/C=C\CCCCCCCCC(CCCCCCCC/C=C\C/C=C\CCCCC)OC(=O)CCCN(C)C [MC3, DLin-MC3-DMA, reference compound] | 124.42 | 504.90 | 2.56E+06 | 2.57E+09 | 1.27E+07 | 2.85E+07 | 2.76E+06 p/s | 3.68E+07 p/s | 1.00 | 1.58E+10 | 2.12E+10 | 7.19E+08 | 1 | 6.59 × 10^9 | 1 | AUC (p/s * h) ([3]; Table 3H, intramuscular, Luc): 5.88E+08 p/s * h; Lipid/MC3 AUC ([3]; Table 3H, intramuscular, Luc): 1; Total flux (p/s) 0.01 mpk Dose ([3]; Table 5B, 6 hours after intramuscular administration, 0.01 mpk): 3.23E+07 p/s; 6 h Lipid/MC3 Avg. Luc Expression ([4]; Table 3C, i.v. administration): 1; Fold increase AUC Lipid/MC3 ([4]; Table 3C, i.v. administration): 1; AUC (h * p/s) ([4]; Table 3C, i.v. administration, Luc): 8.24E+10 h * p/s; Lipid/MC3 AUC ([4]; Table 3D, intravenous): 1; AUC (p/s * h) ([4]; Table 3D, intravenous, Luc): 1.909E+011 p/s * h |
| CCCCCCCCCOC(=O)CCCN(CCO)CCCCCCCC(=O)OC(CCCCCCCC)CCCCCCCC [Compound 26, Heptadecan-9-yl 8-((2-hydroxyethyl)(4-(nonyloxy)-4-oxobutyl)amino) octanoate] | 273.56 | 2330.01 | 4.67E+06 | 2.90E+09 | 1.18E+07 | 1.56E+07 | 3.90E+06 p/s | 6.13E+07 p/s | 4.24 | 6.75E+10 | 1.57E+10 | 1.54E+09 | 4.24 | – | – | IL-6 induction ([1]; i.v., in words): highest; IP-10 induction ([1]; i.v., in words): highest; Fold increase in Luc expression relative to MC3, Intramuscular (0.001 mpk dose) ([3]; intramuscular, 0.001 mpk): 0.56; Fold increase in Luc expression relative to MC3, Intramuscular (0.01 mpk dose) ([3]; intramuscular, 0.01 mpk): 1.39; fold increase in Luc expression over MC3 formulations ([4]; intravenous administration, in words): highest fold increase; Fold increase in Luc expression relative to MC3, Intravenous (0.5 mpk dose) ([4]; intravenous, 0.5 mpk): 4.24; luciferase activity relative to MC3 LNP control ([4]; intravenous, 0.5 mg/kg): higher expression compared to MC3; also recorded: highest luciferase activity of the series |
| CCCCCCCCCCCCCCN(CCO)CCCCCCCC(=O)OC(CCCCCCCC)CCCCCCCC [Compound 2, Heptadecan-9-yl 8-((2-hydroxyethyl)(tetradecyl)amino)octanoate] | 70.95 | 468.86 | 3.86E+06 | 4.87E+09 | 2.52E+07 | 5.77E+07 | 3.55E+06 p/s | 6.16E+07 p/s | 1.31 | 1.93E+10 | 4.31E+10 | 2.43E+09 | – | – | – | – |
| CCCCC/C=C\C/C=C\CCCCCCCCN(CCO)CCCCCCCC(=O)OC(CCCCCCCC)CCCCCCCC [Compound 6, Heptadecan-9-yl 8-((2-hydroxyethyl)((9Z,12Z)-octadeca-9,12-dien-1-yl)amino)octanoate] | 136.18 | 316.01 | 2.15E+06 | 1.09E+09 | 4.30E+06 | 3.03E+07 | – | – | 1.15 | 5.38E+09 | 7.60E+09 | 7.69E+08 | – | 7.60 × 10^9 | 1.15 | luciferase activity relative to MC3 LNP control ([4]; intravenous): Equivalent expression to MC3 LNPs |
